pIC50: −log10 of the molar value. Marks after values point to notes of the source that are not given here. Blank lines part the entries; values can stand above or below the molecule they belong to.
Tests used:
[1] = molecular target: α-Glucosidase enzyme from Brewer's yeast (EC 3.2.1.20); test: α-glucosidase (AG) inhibition assay; format: biochemical; conditions: mean ± standard error; substrate p-NPG; a dash for a tested fraction or compound means no AG activity
Description: (§1) The positive control, acarbose, was purchased from Bayer Pharmaceuticals Pty, Ltd. (Wayne, NJ). Human recombinant aldose reductase and DL-glyceraldehyde were purchased from Wako Pure Chemical Industries, Ltd. (Osaka, Japan). Gliclazide was obtained from Servier Canada (Laval, QC, Canada). Pre-coated silica plates 60 GF254 (20 × 20 cm) (Fluka, Steinheim, Germany) were used for thin-layer chromatography (TLC). Silica gel H (Merck, Darmstadt, Germany) and Lichroprep RP-18 silica gel (15–25 μm, Merck, Darmstadt, Germany) were used for vacuum liquid chromatography (VLC). Silica gel 60 (70–230 mesh ASTM, Fluka, Steinheim, Germany), Diaion HP 20 (Sigma-Aldrich, St. Louis, MO), and Sephadex LH-20 (Sigma-Aldrich, Steinheim, Sweden) were used for column chromatography (CC). Spots were visualized by spraying with p-anisaldehyde/sulphuric acid.
(§2) AG and AR inhibitory activities of MeEx, ClFr, BuFr, AqFr, as well as the Diaion fractions D1–D6 were tested. AG inhibition was measured spectrophotometrically in a 96-well microplate reader using a procedure reported by Li et al. ([2009]). Acarbose was used as a positive control. The AR (EC 1.1.1.21) inhibitory activity was measured according to the procedure previously reported (Nishimura et al. [1991]). The experiments were repeated three times, and the IC50 values were calculated and expressed as mean ± standard error.

[2] = molecular target: T1, Human recombinant aldose reductase (Homo sapiens, UniProt P15121); test: aldose reductase (AR) inhibition assay; format: biochemical; conditions: mean ± standard error
T1 construct: purchased Wako Pure Chemical Industries, Ltd. (Osaka, Japan)
Description: as §1, §2

[3] = system: STZ-induced diabetic rats; test: in vivo antidiabetic activity in STZ-induced diabetic rats; design: species or system male albino rats (Wistar strain); conditions: for Glucose level: fasting serum; for Glucose level / C-peptide / Cholesterol level / Insulin / Triglycerides: mean ± SEM, n = 6; for C-peptide / Cholesterol level / Insulin / Triglycerides: serum
Procedure: (§3) Male albino rats (Wistar strain, 150–200 g) and male mature albino mice of 20–25 g were obtained from the animal house colony of the National Research Center, Egypt. The experimental protocol followed the Institutional Animal Ethical Committee of the National Research Centre. The acute toxicity studies were performed on the mice. […] The animals survived and then four additional animals were tested sequentially so that a total of five animals were tested.
DM was induced by a single i.p. injection of STZ (55 mg/kg) in rats (Brosky and Logothetopoulos [1969]). Only rats with serum glucose levels of more than 250 mg/dL were selected and considered diabetic animals. MeEx, its active fraction (BuFr) and the active compound 3 were tested in the STZ-induced diabetic rats at two dose levels (100 and 200 mg/kg.b/wt) for 2 weeks. At the end of the 2-weeks treatment period, the animals were kept for an overnight fasting and the blood samples were collected from the retroorbital plexus and allowed to clot for 30 min at room temperature. These blood samples were centrifuged at 5000 rpm for 20 min and the serum was separated and stored at −80 °C until analysis was done. Serum samples were analyzed spectrophotometrically for serum glucose, triglycerides and cholesterol. Serum glucose was estimated by glucose oxidase–peroxidase method test agent kit (Stanbio, Boerne, TX) (Cheyne and Gilmore [1973]). Triglycerides were estimated by enzymatic methods by using a diagnostic kit (Biodiagnostic, Cairo, Egypt) (Fossati and Prencipe [1982]). Total cholesterol was estimated by enzymatic methods by using a diagnostic kit (Biodiagnostic, Cairo, Egypt) (Allain et al. [1974]). Serum insulin was estimated by a […] using the ALPCO Insulin (Rat) ELISA kit (Judzewitsch et al. [1982]). Serum C-peptide was measured with a rat insulin enzyme-linked immune absorbent assay kit (C-Peptide EIA Kit, Sigma-Aldrich, St. Louis, MO). Results were expressed as mean ± SEM for biochemical estimations. The quantitative data were analyzed by ANOVA followed by Tukey multiple comparison tests. The Kruskal–Wallis test was used for the quantitative analysis of the histopathology score values. Results were considered to be significant at p < 0.05.

male mature albino mice = test: acute toxicity study in mice; format: in vivo; conditions: ascending oral doses up to 2000 mg/kg, observed closely for 24 h and daily for 14 days
Procedure: as §3
The acute toxicities of the three samples (MeEx, BuFr and compound 3) were studied where the mice took ascending oral doses up to 2000 mg/kg of each sample. They were observed closely for 24 h and daily for 14 days, where no mortality was observed.

[4] = 200 mg/kg for 2 weeks, versus diabetic control

AG inhibition IC50 [1]: 24.00 ± 2.31 µg/mL
Compound: C[C@H]1O[C@H](O[C@H]2[C@H](O)[C@@H](O)[C@@H](O[C@H]3[C@H](O)[C@@H](O)C(O)O[C@@H]3CO)O[C@@H]2CO)[C@H](O)[C@@H](O)[C@@H]1N[C@H]1C=C(CO)[C@@H](O)[C@H](O)[C@H]1O (stereo partly shown) [Acarbose, acarbose, reference compound]

Compound: CC[C@H](/C=C/C(C)C1CCC2C3CC=C4C[C@@H](O[C@@H]5O[C@H](CO)[C@@H](O)[C@H](O)[C@H]5O)CCC4(C)C3CCC12C)C(C)C (stereo partly drawn) [Compound 1, stigmasterol-3-O-β-D-glucopyranoside]
AR inhibition IC50 [2]: inactive
pIC50 [2]: 4.30

Compound: CC(O)C1C(O)CC2C3CC=C4CC(OC5OC(CO)C(O)C(O)C5O)CCC4(C)C3CCC21C [Compound 2, pregn-5-ene-3β,16β,20(R)-triol 3-O-β-D-glucopyranoside]
AR inhibition IC50 [2]: inactive
pIC50 [2]: 4.61

Compound: COC1(CC[C@@H](C)CO[C@@H]2O[C@H](CO)[C@@H](O)[C@H](O)[C@H]2O)OC2C[C@H]3[C@@H]4CC=C5C[C@@H](O[C@@H]6O[C@H](CO)[C@@H](O[C@@H]7O[C@H](CO)[C@@H](O)[C@H](O)[C@H]7O)[C@H](O)[C@H]6O[C@@H]6O[C@@H](C)[C@H](O)[C@@H](O)[C@H]6O)CC[C@]5(C)[C@H]4CC[C@]3(C)C2[C@@H]1C (stereo partly drawn) [Compound 3, 26-(O-β-D-glucopyranosyl)-22-O-methylfurost-5-ene-3β,26-diol-3-O-β-D-glucopyranosyl-(1 → 4)-[α-L-rhamnopyranosyl-(1 → 2)]-β-D-glucopyranoside]
pIC50 [2]: 6.02
Glucose level ([3]; 100 mg/kg for 2 weeks): 207.4 ± 18.33^a mg/dL
C-peptide ([3]; 100 mg/kg for 2 weeks): 1.42 ± 0.07^a ng/mL
Cholesterol level ([3]; 100 mg/kg for 2 weeks): 139.2 ± 10.30 mg/dL
Insulin ([3]; 100 mg/kg for 2 weeks): 1.99 ± 0.04^a μIU/mL
Triglycerides ([3]; 100 mg/kg for 2 weeks): 112.2 ± 9.89 mg/dL
Glucose level ([3]; 200 mg/kg for 2 weeks): 122.2 ± 18.22^b mg/dL
C-peptide ([3]; 200 mg/kg for 2 weeks): 2.04 ± 0.06^b ng/mL
Cholesterol level ([3]; 200 mg/kg for 2 weeks): 115.6 ± 7.12^b mg/dL
Insulin ([3]; 200 mg/kg for 2 weeks): 3.17 ± 0.28^b μIU/mL
Triglycerides ([3]; 200 mg/kg for 2 weeks): 113.5 ± 7.73 mg/dL
increase in C-peptide level [3, 4]: 65%
reduction in fasting blood/plasma glucose level [3, 4]: 51.39%
reduction in total cholesterol level [3, 4]: 31.19%
reduction in total cholesterol level ([3]; 200 mg/kg for 2 weeks, versus diabetic control, listed as furostanol saponin 3): 31.9%
mortality (acute toxicity) (male mature albino mice): no mortality
AG inhibition IC50 [1]: 03.12 ± 0.17 µg/mL

Compound: Cc1ccc(S(=O)(=O)NC(=O)NN2CC3CCCC3C2)cc1 (stereo not shown) [Gliclazide, reference compound]
Glucose level ([3]; 10 mg/kg (standard drug)): 93.09 ± 5.80^b mg/dL
C-peptide ([3]; 10 mg/kg (standard drug)): 1.78 ± 0.11 ng/mL
Cholesterol level ([3]; 10 mg/kg (standard drug)): 125.3 ± 5.98^b mg/dL
Insulin ([3]; 10 mg/kg (standard drug)): 2.82 ± 0.18^a^,^b μIU/mL
Triglycerides ([3]; 10 mg/kg (standard drug)): 103.7 ± 9.73 mg/dL
reduction in cholesterol level ([3]; 10 mg/kg (standard drug), versus diabetic control): 25.42%

Source: publication PMC6130680, “In vitro and in vivo antidiabetic potential of extracts and a furostanol saponin from Balanites aegyptiaca” (Pharmaceutical Biology, 2017)
